Results on seven compounds are retold here after patent US20130102593A1, “PYRROLIDINE COMPOUNDS WHICH INHIBIT BETA-SECRETASE ACTIVITY AND METHODS OF USE THEREOF” (priority 2008, published 2013).

pIC50: −log10 of the molar value. Read-outs that look alike come from different tables or passages of the source.

For one data set, the system named is Aβ production. The data set is described as follows: Cellular Aβ IC50 determination (memapsin 2 activity in a cellular assay of Aβ production). The settings on record: Cricetulus griseus, read-out: M2 IC50. In kind it is cell-based, Chinese hamster. How it is done: The potency of compounds against memapsin 2 activity was determined in a cellular assay of Aβ production. […] Chinese hamster ovary cells that over-express human APP695 with the London and Swedish mutations were seeded in multi-well plates at 10% confluency. Compounds are dissolved in DMSO to concentrations near 1 mM, and diluted into culture media to a final concentration near 4 μM (final 0.4% DMSO). Compounds were diluted serially and applied to cells in multi-well plates 48 h after seeding. Incubation was continued in 5% CO2 at 37° C. for 24 h. Aliquots were removed and assayed for […] content using a sandwich ELISA (BioSource International). Amount of Aβ40 over the range of concentration of compounds, relative to control incubations, were fit to a 4-parameter IC50 model.

Data set [1] in a line: Determination of hepatic intrinsic clearance in liver microsomes. In kind it is in vitro ADME. The settings on record: human liver microsomes, value in text. The method, then:
To 500 μl of 200 mM Na^+K^+ phoshapte buffer (pH 7.4), 100 μl of 1 mM EDTA solution was added followed by 100 μl of 2 mg protein/ml human liver microsomes. A 10 μl aliquot of test compound (20 mM stock in 50% acetonitrile) was diluted further with 40 μl of H2O (total assay volume 750 μl. Assay mixture is incubated for 5 minutes at 37° C. The assay was initiated by addition of 250 μl of 4 mM NADPH solution. Incubation was continued at 37° C. Separate reaction mixtures were prepared for 0, 5, 10, 20, and 30 min durations. Individual reactions were halted by addition of 150 μl of 100% acetonitrile. Internal standard (10 μl of 100 ng/ml diazepam solution) was added. Concentration of the test compound in each separate reaction was measured using LC/MS/MS and a standard curve for the test compound according to standard procedures.
The hepatic intrinsic clearance in liver microsome was determined by the following procedure described by Davies and Morris (Davies, B. and Morris, T. (19930) Physiological parameters in laboratory animals and humans. Pharm Res. 10:1093-1095) detailing the relationship of in vitro clearance to physiological parameters in animals and human subjects. […]
where T is time (in minutes), from the relationship of relative amount vs. time. Alternatively, k1 was determined from a transform of the equation, where […]
For orientation: Liver microsomes are a subcellular fraction often used to study metabolism.

[2] abbreviates: Chinese hamster ovary cells over-expressing human APP695 with London and Swedish mutations, 24 h, Aβ40 sandwich ELISA.

With `Cc1coc([C@H]2CCCN2C(=O)c2cccc(C(=O)N[C@@H](Cc3ccccc3)[C@H](O)[C@H]3C[C@@H](OCc4ccccc4)CN3)c2)n1` [1-18, N-((1R,2S)-1-((2R,4R)-4-(benzyloxy)pyrrolidin-2-yl)-1-hydroxy-3-phenylpropan-2-yl)-3-((R)-2-(4-methyloxazol-2-yl)pyrrolidine-1-carbonyl)benzamide], the pIC50 with Aβ production (CHO cells over-expressing human APP695, Aβ40 ELISA) was 6.54; in the data set with Aβ production (setting [2]) it was over 6.30. For the same compound, the “hepatic intrinsic clearance in liver microsomes (HLM CL)” value in data set [1] (listed as N-(1R,2S)-1-((2R,4R)-4-(benzyloxy)pyrrolidin-2-yl)-1-hydroxy-3-phenylpropan-2-y) is recorded as “approximately 337 mL/min/kg”; in data set [1] (listed as N-((1R,2S)-1-(2R,4R)-4-(benzyloxy)pyrrolidin-2-yl)-1-hydroxy-3-phenylpropan-2-yl), 337 mL/min/kg. With `Cc1csc([C@H]2CCCN2C(=O)c2cccc(C(=O)N[C@@H](Cc3cccc(F)c3)[C@H](O)[C@H]3CCCN3)c2)n1` [1-53, N-((1R,2S)-3-(3-fluorophenyl)-1-hydroxy-1-((R)-pyrrolidin-2-yl)propan-2-yl)-3-((R)-2-(4-methylthiazol-2-yl)pyrrolidine-1-carbonyl)benzamide], in the data set with Aβ production (setting [2]), the negative-log IC50 (pIC50) was 6.00 to 6.30. The same measure, in the same setting: for `Cc1coc([C@H]2CCCN2C(=O)c2cccc(C(=O)N[C@@H](Cc3ccccc3)[C@H](O)[C@H]3CCCN3)c2)n1` [1-4, N-((1R,2S)-1-hydroxy-3-phenyl-1-((R)-pyrrolidin-2-yl)propan-2-yl)-3-((R)-2-(4-methyloxazol-2-yl)pyrrolidine-1-carbonyl)benzamide] the value was under 6.00; for `Cc1csc([C@H]2CCCN2C(=O)c2cc(CF)cc(C(=O)N[C@H](Cc3ccccc3)[C@H](O)[C@H]3C[C@@H](OCc4ccccc4)CN3)c2)n1` [1-45, N-((1R,2R)-1-((2R,4R)-4-(benzyloxy)pyrrolidin-2-yl)-1-hydroxy-3-phenylpropan-2-yl)-3-(fluoromethyl)-5-((R)-2-(4-methylthiazol-2-yl)pyrrolidine-1-carbonyl)benzamide], under 6.00.

As for `C=C(C)c1cccc(CNC[C@@H](O)[C@H](Cc2ccccc2)NC(=O)c2cccc(C(=O)N3CCC[C@@H]3c3nc(C)co3)c2)c1` [2-6, N-((2S,3R)-3-hydroxy-1-phenyl-4-(3-(prop-1-en-2-yl)benzylamino)butan-2-yl)-3-((R)-2-(4-methyloxazol-2-yl)pyrrolidine-1-carbonyl)benzamide, reference compound], the pIC50 in the data set with Aβ production (setting [2]) was over 6.30. Still for that read-out and setting: the result for `Cc1csc([C@H]2CCCN2C(=O)c2cc(C(=O)N[C@@H](Cc3ccccc3)[C@H](O)[C@H]3CCCN3)cc(C(F)F)c2)n1` [1-14, 3-(difluoromethyl)-N-((1R,2S)-1-hydroxy-3-phenyl-1-((R)-pyrrolidin-2-yl)propan-2-yl)-5-((R)-2-(4-methylthiazol-2-yl)pyrrolidine-1-carbonyl)benzamide] reads over 6.30; that for `Cc1csc([C@H]2CCCN2C(=O)c2cccc(C(=O)N[C@@H](Cc3ccccc3)[C@H](O)[C@H]3C[C@H](F)CN3)c2)n1` [1-47, N-((1R,2S)-1-((2R,4S)-4-fluoropyrrolidin-2-yl)-1-hydroxy-3-phenylpropan-2-yl)-3-((R)-2-(4-methylthiazol-2-yl)pyrrolidine-1-carbonyl)benzamide], under 6.00.

In general, pIC50 refers to −log10 of the IC50, conventionally taken in molar units.
